{"source": "patent US9125416B2", "about": "“Pesticidal mixtures” (BASF SE, priority 2010, dated 2015)", "type_in_all_cases": "in vivo", "key": {"[1]": {"test_system": "vetch aphid (Megoura viciae)", "test": "Test 1: Control of Vetch Aphid, broad bean leaf disks in 24-well-microtiter plates", "conditions": "sprayed on leaf disks, aphid mortality and fecundity after 5 days"}, "[2]": {"test_system": "green peach aphid (Myzus persicae)", "test": "Test 2: Control of Green Peach Aphid, liquid artificial diet under artificial membrane, 96-well-microtiter plates", "conditions": "aphid mortality and fecundity after 3 days"}, "[3]": {"test_system": "boll weevil (Anthonomus grandis)", "test": "Test 3: Control of Boll Weevil, insect diet with A. grandis eggs, 24-well-microtiter plates", "conditions": "sprayed onto insect diet, egg and larval mortality after 5 days"}}}
{"compound": "Cc1c(COC(=O)[C@@H]2[C@H](/C=C(\\Cl)C(F)(F)F)C2(C)C)cccc1-c1ccccc1", "note": "(racemic) [Bifenthrin, bifenthrin]", "values": [{"measurement": "Oberved Control average", "setting": "[1]; 2 ppm", "value": 0, "unit": "%"}, {"measurement": "Oberved Control average", "setting": "[2]; 0.08 ppm in aphid diet", "value": 0, "unit": "%"}]}
{"compound": "C[C@]1(COC(=O)C2CC2)[C@@H]2C[C@H](O)[C@@]3(C)Oc4cc(-c5cccnc5)oc(=O)c4[C@H](O)[C@@H]3[C@@]2(C)CC[C@@H]1OC(=O)C1CC1", "note": "[Compound I, [(3S,4R,4aR,6S,6aS,12R,12aS,12bS)-3-(cyclopropanecarbonyloxy)-6,12-dihydroxy-4,6a,12b-trimethyl-11-oxo-9-(pyridin-3-yl)-1,2,3,4,4a,5,6,6a,12a,12b-decahydro-11H,12H-benzo[f]pyrano[4,3-b]chromen-4-yl]methyl cyclopropanecarboxylate]", "values": [{"measurement": "Oberved Control average", "setting": "[1]; 0.004 ppm", "value": 25, "unit": "%"}, {"measurement": "Oberved Control average", "setting": "[2]; 0.004 ppm in aphid diet", "value": 0, "unit": "%"}, {"measurement": "Oberved Control average", "setting": "[3]; 0.02 ppm", "value": 0, "unit": "%"}]}
{"compound": "O=C1C=C(N(CCF)Cc2ccc(Cl)nc2)CO1", "note": "[Compound M26.4, 4-{[(6-chloropyrid-3-yl)methyl](2-fluoroethyl)amino}furan-2(5H)-on]", "values": [{"measurement": "Oberved Control average", "setting": "[3]; 2 ppm", "value": 0, "unit": "%"}]}
{"compound": "abamectin", "values": [{"measurement": "Oberved Control average", "setting": "[2]; 0.016 ppm in aphid diet", "value": 0, "unit": "%"}]}
